Results taken from the supplement of paper PMC10307832.

Experiments:
Experiment in all cases: relative viability (nuclei count vs DMSO), 5 days (fraction); higher = more cells survive
NCI-H3122 = tested on: NCI-H3122
Summary of the method: (§1)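 Lung cancer cell lines in 1536-well plates got either a single drug or a fixed anchor-drug dose together with five library-drug doses (not always all listed) in √10 steps, by pin tool, on the day after seeding. Nuclei were counted after 5 days, and relative viability is the treated-to-vehicle ratio of nuclei counts. Values are medians of duplicate plates.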

SK-MES-1 = tested on: SK-MES-1
Summary of the method: as §1

NCI-H2405 = tested on: NCI-H2405
Summary of the method: as §1

NCI-H1651 = tested on: NCI-H1651
Summary of the method: as §1

SW 1573 = tested on: SW 1573
Summary of the method: as §1

NCI-H2126 = tested on: NCI-H2126
Summary of the method: as §1

LK-2 = tested on: LK-2
Summary of the method: as §1

NCI-H838 = tested on: NCI-H838
Summary of the method: as §1

NCI-H1792 = tested on: NCI-H1792
Summary of the method: as §1

NCI-H2023 = tested on: NCI-H2023
Summary of the method: as §1

NCI-H1395 = tested on: NCI-H1395
Summary of the method: as §1

HARA = tested on: HARA
Summary of the method: as §1

A-427 = tested on: A-427
Summary of the method: as §1

LOU-NH91 = tested on: LOU-NH91
Summary of the method: as §1

NCI-H460 = tested on: NCI-H460
Summary of the method: as §1

ChaGo-K-1 = tested on: ChaGo-K-1
Summary of the method: as §1

NCI-H1734 = tested on: NCI-H1734
Summary of the method: as §1

COR-L23 = tested on: COR-L23
Summary of the method: as §1

LCLC-97TM1 = tested on: LCLC-97TM1
Summary of the method: as §1

NCI-H23 = tested on: NCI-H23
Summary of the method: as §1

LU99A = tested on: LU99A
Summary of the method: as §1

NCI-H1975 = tested on: NCI-H1975
Summary of the method: as §1

SMILES: Nc1cccc2c1CN(C1CCC(=O)NC1=O)C2=O (centres undefined) [Lenalidomide] + CC1(C)CCC(c2ccc(Cl)cc2)=C(CN2CCN(c3ccc(C(=O)NS(=O)(=O)c4ccc(N[C@H](CCN5CCOCC5)CSc5ccccc5)c(S(=O)(=O)C(F)(F)F)c4)cc3)CC2)C1 [Navitoclax] (partner 0.5 µM)
- relative viability (NCI-H3122; first compound 0.253 µM): 1
- relative viability (NCI-H3122; first compound 0.8 µM): 1.08
- relative viability (NCI-H3122; first compound 2.53 µM): 0.997
- relative viability (NCI-H3122; first compound 8 µM): 1.07
- relative viability (SK-MES-1; first compound 0.253 µM): 1.12
- relative viability (SK-MES-1; first compound 0.8 µM): 1.15
- relative viability (SK-MES-1; first compound 2.53 µM): 1.3
- relative viability (SK-MES-1; first compound 8 µM): 1.17
- relative viability (NCI-H2405; first compound 0.253 µM): 0.83
- relative viability (NCI-H2405; first compound 0.8 µM): 0.921
- relative viability (NCI-H2405; first compound 2.53 µM): 0.793
- relative viability (NCI-H2405; first compound 8 µM): 0.802
- relative viability (NCI-H1651; first compound 0.253 µM): 1.04
- relative viability (NCI-H1651; first compound 0.8 µM): 0.931
- relative viability (NCI-H1651; first compound 2.53 µM): 1.25
- relative viability (NCI-H1651; first compound 8 µM): 0.898
- relative viability (SW 1573; first compound 0.253 µM): 0.931
- relative viability (SW 1573; first compound 0.8 µM): 0.911
- relative viability (SW 1573; first compound 2.53 µM): 1.07
- relative viability (SW 1573; first compound 8 µM): 0.926
- relative viability (NCI-H2126; first compound 0.253 µM): 0.798
- relative viability (NCI-H2126; first compound 0.8 µM): 0.907
- relative viability (NCI-H2126; first compound 2.53 µM): 0.815
- relative viability (NCI-H2126; first compound 8 µM): 0.688
- relative viability (LK-2; first compound 0.253 µM): 0.817
- relative viability (LK-2; first compound 0.8 µM): 0.85
- relative viability (LK-2; first compound 2.53 µM): 0.959
- relative viability (LK-2; first compound 8 µM): 0.709
- relative viability (NCI-H838; first compound 0.253 µM): 1.15
- relative viability (NCI-H838; first compound 0.8 µM): 1.09
- relative viability (NCI-H838; first compound 2.53 µM): 1.29
- relative viability (NCI-H838; first compound 8 µM): 1.1
- relative viability (NCI-H1792; first compound 0.253 µM): 0.74
- relative viability (NCI-H1792; first compound 0.8 µM): 0.582
- relative viability (NCI-H1792; first compound 2.53 µM): 0.848
- relative viability (NCI-H1792; first compound 8 µM): 0.364
- relative viability (NCI-H2023; first compound 0.253 µM): 1
- relative viability (NCI-H2023; first compound 0.8 µM): 1.13
- relative viability (NCI-H2023; first compound 2.53 µM): 1.05
- relative viability (NCI-H2023; first compound 8 µM): 1.01
- relative viability (NCI-H1395; first compound 0.253 µM): 1.2
- relative viability (NCI-H1395; first compound 2.53 µM): 1.31
- relative viability (NCI-H1395; first compound 8 µM): 0.978
- relative viability (HARA; first compound 0.253 µM): 1.14
- relative viability (HARA; first compound 0.8 µM): 1.12
- relative viability (HARA; first compound 2.53 µM): 1.19
- relative viability (HARA; first compound 8 µM): 1.2
- relative viability (A-427; first compound 0.253 µM): 0.99
- relative viability (A-427; first compound 2.53 µM): 0.911
- relative viability (A-427; first compound 8 µM): 0.832
- relative viability (LOU-NH91; first compound 0.253 µM): 0.614
- relative viability (LOU-NH91; first compound 0.8 µM): 0.631
- relative viability (LOU-NH91; first compound 2.53 µM): 0.673
- relative viability (LOU-NH91; first compound 8 µM): 0.692
- relative viability (NCI-H460; first compound 0.253 µM): 0.811
- relative viability (NCI-H460; first compound 0.8 µM): 1.28
- relative viability (NCI-H460; first compound 2.53 µM): 1.15
- relative viability (NCI-H460; first compound 8 µM): 1.13
- relative viability (ChaGo-K-1; first compound 0.253 µM): 1.08
- relative viability (ChaGo-K-1; first compound 2.53 µM): 1.05
- relative viability (ChaGo-K-1; first compound 8 µM): 0.949
- relative viability (NCI-H1734; first compound 0.253 µM): 0.802
- relative viability (NCI-H1734; first compound 0.8 µM): 0.831
- relative viability (NCI-H1734; first compound 2.53 µM): 1.01
- relative viability (NCI-H1734; first compound 8 µM): 0.796
- relative viability (COR-L23; first compound 0.253 µM): 0.986
- relative viability (COR-L23; first compound 0.8 µM): 1.01
- relative viability (COR-L23; first compound 2.53 µM): 0.997
- relative viability (COR-L23; first compound 8 µM): 1.06
- relative viability (LCLC-97TM1; first compound 0.8 µM): 0.544
- relative viability (LCLC-97TM1; first compound 2.53 µM): 0.502
- relative viability (LCLC-97TM1; first compound 8 µM): 0.407
- relative viability (NCI-H23; first compound 0.253 µM): 0.876
- relative viability (NCI-H23; first compound 0.8 µM): 0.917
- relative viability (NCI-H23; first compound 2.53 µM): 0.999
- relative viability (NCI-H23; first compound 8 µM): 0.649
- relative viability (LU99A; first compound 0.253 µM): 0.853
- relative viability (LU99A; first compound 0.8 µM): 0.963
- relative viability (LU99A; first compound 2.53 µM): 0.925
- relative viability (LU99A; first compound 8 µM): 0.502
- relative viability (NCI-H1975; first compound 0.253 µM): 1.13
- relative viability (NCI-H1975; first compound 0.8 µM): 1.07
- relative viability (NCI-H1975; first compound 2.53 µM): 1.25
- relative viability (NCI-H1975; first compound 8 µM): 1.19
